In PMC5318439, “The Novel Toll-Like Receptor 2 Agonist SUP3 Enhances Antigen Presentation and T Cell Activation by Dendritic Cells” (Frontiers in Immunology, 2017):
Where a SMILES comes first, the peptide text is derived from it. The star is where a group is joined. X1 = CCCCCCCCCCCCCCNC(=O)OC[C@H](C*)OC(=O)NCCCCCCCCCCCCCC; Palmitoyl = CCCCCCCCCCCCCCCC(=O)*

Assays:
[1] = TD antigen (NP-KLH) immunization and antibody titer analysis; format: in vivo, mice; details: NP-KLH 5 µg per mouse i.p. with 2 nmol per mouse; serum ELISA weekly; vs Pam3
Procedure: Thymus-dependent antigen immunization and antibody titer analysis were performed as previously described ([43]). Briefly, wild-type (WT) mice were immunized by i.p. injection of TD antigen nitrophenyl-keyhole limpet hemocyanin (NP-KLH, 5 µg per mouse; Biosearch Technologies N-5060) alone, or mixed with SUP3 (2 nmol per mouse), Pam3 (2 nmol per mouse), or alum (3 µg per mouse; Thermo 77161). Serum was harvested every week, and nitrophenyl-specific IgM and IgG were determined by ELISA. IgM and total IgG were captured by nitrophenyl 30mer (Biosearch Technologies N-5050H), and high affinity IgG was captured by nitrophenyl 8mer (Biosearch Technologies N-5050L) pre-coated ELISA plates (Corning 9018).
Figure 5 SUP3 enhanced antigen presentation ability of CD11b^+ conventional dendritic cells (cDCs) and production of antibodies against thymus-dependent (TD) antigens. […] Three days after immunization, division of OT-II CD4^+ T cells from inguinal lymph nodes were analyzed by flow cytometry (B). Absolute numbers of proliferated OT-II CD4^+ T cells were calculated in (C). […] Cells were then thoroughly washed and cocultured with CFSE-stained OT-II CD4^+ T cells for 4 days and analyzed by flow cytometry. (D) The division of OT-II cells was measured by reduced level of CFSE-labeling. (E) Absolute numbers of proliferated T cells from (D) were calculated. […]

[2] = Antigen deposition (OVA-AF647) in draining lymph nodes; format: in vivo, mice; details: OVA-AF647 25 µg per mouse s.c. with 2 nmol per mouse, 24 h; vs OVA alone or OVA with Pam3
Procedure: Wild-type mice were s.c. injected with OVA-AF647 alone (25 µg per mouse; Molecular Probes O-34784), or mixtures of OVA-AF647 with SUP3 (2 nmol per mouse) or Pam3 (2 nmol per mouse) at groin. Inguinal lymph nodes were isolated 24 h post-injection, and then immune cells were analyzed by flow cytometry.
Figure 6 SUP3 enhanced antigen deposition in draining lymph nodes. Mice were immunized at groin by s.c. injection of ovalbumin (OVA)-Alexa Fluor 647 (AF647) (25 µg per mouse) with or without SUP3 (2 nmol per mouse) or Pam3 (2 nmol per mouse) for 24 h. Inguinal lymph nodes were isolated, and immune cells were analyzed for levels of AF647 fluorescence by flow cytometry (A). The number of OVA-AF647 positive cells was calculated in (B). Representative data were from two independent experiments with three mice in each group.

Plasma stability = format: in vitro ADME; details: compared with Pam3, Figure S3B
Text: Pam3 is a lipopeptide and serves as a TLR2 agonist through binding to TLR2/TLR1 heterodimer. Although Pam3 is widely used as a TLR2 agonist, some intrinsic problems remain in detailed mechanism studies and drug development. The two ester groups of Pam3 can be easily hydrolyzed in plasma, and the hydroxyl group in serine could be readily oxidized in physiological conditions (Figure S1A in Supplementary Material). […] In addition, we displaced serine residue in Pam3 with glycine residue to eliminate this chiral center (Figures S1A,B in Supplementary Material). Since the third lysine residue in Pam3 is crucial for H bonding, we kept three lysine residues in the new molecule and removed the forth lysine residue to further reduce the molecular weight of the new TLR2 agonist, (2S,5S,8S,14R,18R)-2,5,8-tris(4-aminobutyl)-4,7,10,13,21-pentaoxo-14-palmitamido-18-((tetradecylcarbamoyl)oxy)-20-oxa-16-thia-3,6,9,12,22-pentaazahexatriacontan-1-oic acid. It is termed SUP3 (Figure 1A; Figures S1A,B in Supplementary Material). Chemical characterization of SUP3 by ^1H nuclear magnetic resonance and electrospray ionization mass spectrum analysis further confirm the structure (Figures S2A,B in Supplementary Material).

Structure (SMILES): CCCCCCCCCCCCCCCC(=O)N[C@@H](CSC[C@@H](COC(=O)NCCCCCCCCCCCCCC)OC(=O)NCCCCCCCCCCCCCC)C(=O)NCC(=O)N[C@@H](CCCCN)C(=O)N[C@@H](CCCCN)C(=O)N[C@@H](CCCCN)C(=O)O [SUP3, (2S,5S,8S,14R,18R)-2,5,8-tris(4-aminobutyl)-4,7,10,13,21-pentaoxo-14-palmitamido-18-((tetradecylcarbamoyl)oxy)-20-oxa-16-thia-3,6,9,12,22-pentaazahexatriacontan-1-oic acid] (Palmitoyl-C(X1)GKKK-OH)
- titers of TD antigen-specific antibodies (IgM, total IgG, high affinity IgG) [1]: higher titers
- numbers of antigen-containing CD8+ cDCs, CD11b+ cDCs, macrophages, and monocytes in inguinal lymph nodes [2]: increased numbers
- plasma stability (Plasma stability): much higher than Pam3
